Measured values as given in patent US20070128217A1 (priority 2003, published 2007).

What was measured:
[1] = test system: antibodies in sera from SARS patients (sera 1a, 1b, 2, 6, 37, 62, London, SARS-yellow, SARS-green); assay type: binding, human; set-up: Binding of serum 6 to linear peptides of protein X1 of SARS-CoV Urbani / Binding of serum 37 to linear peptides of protein X1 of SARS-CoV Urbani / Binding of serum 6 to looped/cyclic peptide (PEPSCAN-ELISA) / Binding of serum 37 to looped/cyclic peptide (PEPSCAN-ELISA) / Binding of serum 37 to looped/cyclic peptides of protein X1 of SARS-CoV Urbani / Binding of serum 6 to linear peptides of protein X2 / Binding of serum 37 to linear peptides of protein X2 / Binding of serum 37 to looped/cyclic peptides of protein X2 of SARS-CoV Urbani / Binding of serum 6 to linear peptides of protein M of SARS-CoV Urbani / Binding of serum 37 to linear peptides of protein M of SARS-CoV Urbani / Binding of serum 6 to looped/cyclic peptides of protein M of SARS-CoV Urbani / Binding of serum 37 to looped/cyclic peptides of protein M of SARS-CoV Urbani / Binding of serum 6 to linear peptides of protein X3 of SARS-CoV Urbani / Binding of serum 37 to linear peptides of protein X3 of SARS-CoV Urbani / Binding of serum 37 to looped/cyclic peptides of protein X3 of SARS-CoV Urbani / Binding of serum 6 to linear peptides of protein X4 of SARS-CoV Urbani / Binding of serum 37 to linear peptides of protein X4 of SARS-CoV Urbani / Binding of serum 37 to looped/cyclic peptides of protein X4 of SARS-CoV Urbani / Binding of serum 6 to linear peptides of protein X5 of SARS-CoV Urbani / Binding of serum 37 to linear peptides of protein X5 of SARS-CoV Urbani / Binding of serum 37 to looped/cyclic peptides of protein X5 of SARS-CoV Urbani / Binding of serum 6 to linear peptides of protein N of SARS-CoV Urbani / Binding of serum 37 to linear peptides of protein N of SARS-CoV Urbani / Binding of serum 6 to linear peptide (PEPSCAN-ELISA) / Binding of serum 1a to looped/cyclic peptides of protein N of SARS-CoV Urbani / Binding of serum 1b to looped/cyclic peptides of protein N of SARS-CoV Urbani / Binding of serum 2 to looped/cyclic peptides of protein N of SARS-CoV Urbani / Binding of serum 6 to looped/cyclic peptides of protein N of SARS-CoV Urbani / Binding of serum 37 to looped/cyclic peptides of protein N of SARS-CoV Urbani / Binding of serum 62 to looped/cyclic peptides of protein N of SARS-CoV Urbani / Binding of serum London to looped/cyclic peptides of protein N of SARS-CoV Urbani / Binding of serum SARS-green to looped/cyclic peptides of protein N of SARS-CoV Urbani: unit not given here
[2] = test system: control sera (pooled serum of ten healthy LUMC hospital workers; commercial negative donor pooled serum from the Dutch bloodbank); assay type: binding, human
[3] = test system: rabbit serum obtained by immunizing a rabbit with the SARS-CoV strain Frankfurt 1; assay type: binding; set-up: Binding of a rabbit serum to linear peptides / Binding of a rabbit serum to looped peptides / Rabbit serum linear peptides / Rabbit serum looped peptides / Binding of a rabbit serum to linear peptides of protein N of SARS-CoV Urbani (Rabbit serum linear peptides) / Binding of a rabbit serum to looped/cyclic peptides of protein N of SARS-CoV Urbani (Rabbit serum looped peptides): unit not given here

GTLIVNSVLLFLAFV was tested, and the “Binding of serum 1a to linear peptides of protein E of SARS-CoV Urbani” value [1] was 0.8, the “Binding of serum 1a to looped/cyclic peptides of protein E of SARS-CoV Urbani” value [1] was 0.2 and the “Binding of serum 1b to linear peptides of protein E of SARS-CoV Urbani” value [1] was 0.7. The “Binding of serum 1b to looped/cyclic peptides of protein E of SARS-CoV Urbani” value [1] was 0.0, the “Binding of serum 2 to linear peptides of protein E of SARS-CoV Urbani” value [1] was 0.4 and the “Binding of serum 2 to looped/cyclic peptides of protein E of SARS-CoV Urbani” value [1] was 0.6. For the same sequence, the “Binding of serum 6 to linear peptides of protein E of SARS-CoV Urbani” value [1] was 0.9, the “Binding of serum 6 to looped/cyclic peptides of protein E of SARS-CoV Urbani” value [1] was 0.3 and the “Binding of serum 37 to linear peptides of protein E of SARS-CoV Urbani” value [1] was 0.8. The “Binding of serum 37 to looped/cyclic peptides of protein E of SARS-CoV Urbani” value [1] was 0.2, the “Binding of serum 62 to linear peptides of protein E of SARS-CoV Urbani” value [1] was 0.7 and the “Binding of serum 62 to looped/cyclic peptides of protein E of SARS-CoV Urbani” value [1] was 0.4. The “Binding of serum London to linear peptides of protein E of SARS-CoV Urbani” value [1] was 0.5, the “Binding of serum London to looped/cyclic peptides of protein E of SARS-CoV Urbani” value [1] was 0.4 and the “Binding of serum SARS-green to linear peptides of protein E of SARS-CoV Urbani” value [1] was 0.4. The “Binding of serum SARS-green to looped/cyclic peptides of protein E of SARS-CoV Urbani” value [1] was 0.4, the “Binding of serum SARS-yellow to linear peptides of protein E of SARS-CoV Urbani” value [1] was 0.2 and the “Binding of serum SARS-yellow to looped/cyclic peptides of protein E of SARS-CoV Urbani” value [1] was 0.0. For the same sequence, the “Binding of Control Serum Blood-Bank to Looped peptides” value [2] was 0.7, the “Binding of Control serum Blood-bank to linear peptides” value [2] was 0.7 and the “Binding of Control serum LUMC to linear peptides” value [2] was 0.5. For the same sequence, the “Binding of Control serum LUMC to looped peptides” value [2] was 0.3, the “Binding of a rabbit serum to linear peptides” value [3] was 0.6 and the “Binding of a rabbit serum to looped peptides” value [3] was 0.0.
With IAEILIIIMRTFRIA the “Binding of serum 1a to linear peptides of protein X3 of SARS-CoV Urbani” value [1] was 0.8, the “Binding of serum 1a to looped/cyclic peptides of protein X3 of SARS-CoV Urbani” value [1] was 0.7 and the “Binding of serum 1b to linear peptides of protein X3 of SARS-CoV Urbani” value [1] was 0.5. For the same sequence, the “Binding of serum 1b to looped/cyclic peptides of protein X3 of SARS-CoV Urbani” value [1] was 0.3, the “Binding of serum 2 to linear peptides of protein X3 of SARS-CoV Urbani” value [1] was 0.6 and the “Binding of serum 2 to looped/cyclic peptides of protein X3 of SARS-CoV Urbani” value [1] was 0.5. For the same sequence, the “Binding of serum 6 to linear peptides of protein X3 of SARS-CoV Urbani” value [1] was 0.0, the “Binding of serum 6 to looped/cyclic peptides of protein X3 of SARS-CoV Urbani” value [1] was 0.7 and the “Binding of serum 37 to linear peptides of protein X3 of SARS-CoV Urbani” value [1] was 0.6. The “Binding of serum 37 to looped/cyclic peptides of protein X3 of SARS-CoV Urbani” value [1] was 0.4, the “Binding of serum 62 to linear peptides of protein X3 of SARS-CoV Urbani” value [1] was 0.7 and the “Binding of serum 62 to looped/cyclic peptides of protein X3 of SARS-CoV Urbani” value [1] was 0.4. The “Binding of serum London to linear peptides of protein X3 of SARS-CoV Urbani” value [1] was 0.7, the “Binding of serum London to looped/cyclic peptides of protein X3 of SARS-CoV Urbani” value [1] was 0.8 and the “Binding of serum SARS-green to linear peptides of protein X3 of SARS-CoV Urbani” value [1] was 0.3. For the same sequence, the “Binding of serum SARS-green to looped/cyclic peptides of protein X3 of SARS-CoV Urbani” value [1] was 0.2, the “Binding of serum SARS-yellow to linear peptides of protein X3 of SARS-CoV Urbani” value [1] was 0.3 and the “Binding of serum SARS-yellow to looped/cyclic peptides of protein X3 of SARS-CoV Urbani” value [1] was 0.6. For the same sequence, the “Binding of Control Serum Blood-Bank to Looped peptides of the protein X3 of SARS-CoV Urbani” value [2] was 0.8, the “Binding of Control serum Blood-bank to linear peptides of the protein X3 of SARS-CoV Urbani” value [2] was 0.9 and the “Binding of Control serum LUMC to linear peptides of the protein X3 of SARS-CoV Urbani” value [2] was 0.5. For the same sequence, the “Binding of Control serum LUMC to looped peptides of the protein X3 of SARS-CoV Urbani” value [2] was 0.9, the “Rabbit serum linear peptides” value [3] was 0.3 and the “Rabbit serum looped peptides” value [3] was 0.2.
For LIVNSVLLFLAFVVF, the “Binding of serum 1a to linear peptides of protein E of SARS-CoV Urbani” value [1] was 0.8, the “Binding of serum 1a to looped/cyclic peptides of protein E of SARS-CoV Urbani” value [1] was 0.5 and the “Binding of serum 1b to linear peptides of protein E of SARS-CoV Urbani” value [1] was 0.6. For the same sequence, the “Binding of serum 1b to looped/cyclic peptides of protein E of SARS-CoV Urbani” value [1] was 0.4, the “Binding of serum 2 to linear peptides of protein E of SARS-CoV Urbani” value [1] was 0.4 and the “Binding of serum 2 to looped/cyclic peptides of protein E of SARS-CoV Urbani” value [1] was 0.5. The “Binding of serum 6 to linear peptides of protein E of SARS-CoV Urbani” value [1] was 0.7, the “Binding of serum 6 to looped/cyclic peptides of protein E of SARS-CoV Urbani” value [1] was 0.4 and the “Binding of serum 37 to linear peptides of protein E of SARS-CoV Urbani” value [1] was 0.6. For the same sequence, the “Binding of serum 37 to looped/cyclic peptides of protein E of SARS-CoV Urbani” value [1] was 0.5, the “Binding of serum 62 to linear peptides of protein E of SARS-CoV Urbani” value [1] was 0.6 and the “Binding of serum 62 to looped/cyclic peptides of protein E of SARS-CoV Urbani” value [1] was 0.6. The “Binding of serum London to linear peptides of protein E of SARS-CoV Urbani” value [1] was 0.4, the “Binding of serum London to looped/cyclic peptides of protein E of SARS-CoV Urbani” value [1] was 0.3 and the “Binding of serum SARS-green to linear peptides of protein E of SARS-CoV Urbani” value [1] was 0.4. For the same sequence, the “Binding of serum SARS-green to looped/cyclic peptides of protein E of SARS-CoV Urbani” value [1] was 0.2, the “Binding of serum SARS-yellow to linear peptides of protein E of SARS-CoV Urbani” value [1] was 0.3 and the “Binding of serum SARS-yellow to looped/cyclic peptides of protein E of SARS-CoV Urbani” value [1] was 0.5. The “Binding of Control Serum Blood-Bank to Looped peptides” value [2] was 0.8, the “Binding of Control serum Blood-bank to linear peptides” value [2] was 0.5 and the “Binding of Control serum LUMC to linear peptides” value [2] was 0.3. The “Binding of Control serum LUMC to looped peptides” value [2] was 0.8, the “Binding of a rabbit serum to linear peptides” value [3] was 0.5 and the “Binding of a rabbit serum to looped peptides” value [3] was 0.3.
